Assay results taken from article PMC4794339 (Molecular and biochemical parasitology, 2016).
Read-outs that look alike come from different tables or passages of the source.

What was measured:
[1] = target: T1, T. cruzi glucokinase (TcGlcK) (Trypanosoma cruzi, UniProt Q4E4E1); conditions: read-out: KM for D-glucose, TcGlcK; room temperature, pH 8.5; cited from earlier work
[2] = target: T2, Homo sapiens hexokinase IV (HsHxKIV) (Homo sapiens, UniProt P35557); assay type: biochemical; conditions: read-out: KM for D-glucose, His6-HsHxKIV; truncated construct; 22 °C, pH 7.6
T2 sequence (P35557 12-457 limits assumed): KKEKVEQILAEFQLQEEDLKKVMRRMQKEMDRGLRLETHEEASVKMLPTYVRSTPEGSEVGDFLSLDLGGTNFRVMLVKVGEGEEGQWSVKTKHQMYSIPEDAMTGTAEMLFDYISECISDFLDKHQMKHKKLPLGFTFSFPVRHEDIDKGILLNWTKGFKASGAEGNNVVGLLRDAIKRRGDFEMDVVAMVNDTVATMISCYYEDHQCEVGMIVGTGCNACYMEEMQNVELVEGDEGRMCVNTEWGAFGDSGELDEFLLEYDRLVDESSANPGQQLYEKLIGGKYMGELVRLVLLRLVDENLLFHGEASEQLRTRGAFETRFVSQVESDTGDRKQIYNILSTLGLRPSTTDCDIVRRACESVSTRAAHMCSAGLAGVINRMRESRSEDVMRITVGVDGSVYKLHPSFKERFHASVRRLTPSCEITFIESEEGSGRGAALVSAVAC

[3] = system: T. cruzi hexokinase (TcHxK); conditions: read-out: KM for D-glucose catalysis, TcHxK; cited from earlier work
[4] = target: T2, Homo sapiens hexokinase IV (HsHxKIV); conditions: read-out: KM for D-glucose, non-His-tagged wt-HsHxKIV; cited from earlier work
[5] = target: T1, T. cruzi glucokinase (TcGlcK); assay type: biochemical; conditions: for TcGlcK selectivity ratio: Ki (HsHxKIV) / Ki (TcGlcK); for LE (ligand efficiency): LE = −RTlnKi/N, N non-hydrogen atoms, TcGlcK inhibition; for fold weaker TcGlcK inhibition compared to CBZ-GlcN: ratio of Ki values
[6] = system: T. cruzi (Tulahuen strain) intracellular amastigotes; assay: intracellular amastigote growth inhibition in NIH-3T3 fibroblasts; assay type: cell-based, Trypanosoma cruzi; conditions: for changes in the percent activity: at 50 μM, highest concentration tested
[7] = target: TbHxK; conditions: read-out: Ki, TbHxK; cited from earlier work
[8] = system: T. cruzi (Tulahuen strain) intracellular amastigotes; conditions: read-out: T. cruzi IC50, reported value, cited from earlier work
[9] = system: T. cruzi parasites; conditions: acute stage; cited from earlier work
[10] = ratio of amastigote IC50 values

OC[C@H]1OC(O)[C@H](O)[C@@H](O)[C@@H]1O (stereo partly drawn) [D-glucose]
Km [1]: 1 mM
Km [2]: 41.8 ± 8.7 mM
Km [3]: 60 µM
Km [4]: 6 mM
Km ([5]; read-out: KM for D-glucose, His6-TcGlcK, room temperature (22 °C), pH 7.6): 948 ± 295 µM

O=C(N[C@H]1C(O)O[C@H](CO)[C@@H](O)[C@@H]1O)OCc1ccccc1 (stereo partly drawn) [CBZ-GlcN, 2-N-carboxybenzyl-2-deoxy-D-glucosamine]
TcGlcK selectivity ratio [5]: 245
LE (ligand efficiency) [5]: 0.38 kcal/mol

O=C(N[C@H]1C(O)O[C@H](CO)[C@@H](O)[C@@H]1O)OCC1=Cc2ccccc2S1(=O)=O (stereo partly drawn) [DBT-GlcN, 2-[[1,1-dioxobenzo[b]thiophen-2-yl]methyloxocarbonylamino]-2-deoxy-D-glucosamine]
changes in the percent activity [6]: not significant
LE (ligand efficiency) [5]: 0.27 kcal/mol
fold weaker TcGlcK inhibition compared to CBZ-GlcN [5]: 6 fold

O=C(N[C@H]1C(O)O[C@H](CO)[C@@H](O)[C@@H]1O)c1cccc(Br)c1 (stereo partly drawn) [m-bromo-benzoyl glucosamine]
Ki [7]: 2800 nM

O=C(N[C@H]1C(O)O[C@H](CO)[C@@H](O)[C@@H]1O)c1ccccc1 (stereo partly drawn) [BENZ-GlcN, 2-benzamido-2-deoxy-D-glucopyranose]
fold weaker inhibition effect compared to amphotericin B [6, 10]: 34 fold
fold weaker inhibition effect compared to benznidazole [6, 10]: 14 fold
LE (ligand efficiency) [5]: 0.30 kcal/mol

O=C(CCc1ccc(O)cc1)N[C@H]1C(O)O[C@H](CO)[C@@H](O)[C@@H]1O (stereo partly drawn) [HPOP-GlcN, 2-[[3-(4-hydroxyphenyl)-1-oxopropyl]amino]-2-deoxy-D-glucosamine]
changes in the percent activity [6]: not significant
TcGlcK selectivity ratio [5]: 186
LE (ligand efficiency) [5]: 0.35 kcal/mol
fold weaker TcGlcK inhibition compared to CBZ-GlcN [5]: 1.8 fold

O=C(Cn1ccnc1[N+](=O)[O-])NCc1ccccc1 [Benznidazole, N-Benzyl-2-nitro-1H-imidazole-1-acetamide]
IC50 ([8]; ref 50): 1430 nM
IC50 ([8]; ref 51): 1500 nM
parasitological cures [9]: ≤ 80%
